Values after ≈ are worked out from the molar mass of the structure shown. Read-outs that look alike come from different tables or passages of the source.
Key:
C. albicans [1] = experiment: Agar diffusion assay, C. albicans; type: cell-based, Candida albicans; settings: for zone of inhibition at 20 µM: Candida albicans, read-out: C. albicans ZID (inhibition zone diameter); for C. albicans IA% (activity index): ratio of inhibition zone of compound to that of positive control (clotrimazole)
C. albicans [2] = experiment: MIC by microdilution, C. albicans; type: cell-based; settings: Candida albicans; microdilution method; read-out: MIC C. albicans
From the text: (§1) The encouraging antitumor properties of the OSe compounds motivated us to evaluate their corresponding antimicrobial activities against the C. albicans fungal strain, S. aureus Gram-positive bacteria, and E. coli Gram-negative bacteria. Therefore, we applied the agar diffusion and minimum inhibitory concentration (MIC) methods using clotrimazole antifungal and ampicillin antibacterial drugs as standards.
(§2) The products’ antimicrobial properties were examined according to the previously reported method, via agar well diffusion assay against E. coli, S. aureus, and C. albicans. A microdilution method was also used to record MICs (M), following the previously reported procedure. Experimental details can be found in the Supplementary Materials.
Briefly, a concentration of 1 mM was prepared for each compound by dissolving in DMSO. Paper discs of standard size […] were sterilized in an autoclave and soaked in 9 µL of the test compounds, and placed in the Petri dishes, which in turn contain a nutrient media (agar 9 g, peptone 5 g, and beef extract 3 g) seeded with the dedicated strain. Incubation lasted for 13 h at 36 0C. […]

MCF-7 cells = experiment: MTT antiproliferative assay, MCF-7 cells; type: cell-based; settings: for IC50: Homo sapiens, MCF7, 24 h, read-out: MCF7 IC50; for MCF7 TI (therapeutic index): ratio of IC50 against WI38 cells to IC50 against MCF-7 cells
From the text: (§3) Recently, OSe agents have attracted interest due to their potential chemoprotective and antitumor properties. […] Therefore, we estimated the OSe agents’ antiproliferative activities against different cancer cells, i.e., MCF-7 and HepG2 cells and healthy lung fibroblast WI-38 cells, using the MTT assay. The drug doxorubicin was employed as the standard. The corresponding therapeutic indices (TI) are described as the proportion of the WI38 cells IC50 to the IC50 of the cancer cell (e.g., MCF-7 and HepG2) (Table 1).
(§4) The products’ anticancer activity was examined using the MTT assay against breast (MCF-7) carcinoma cells, liver (HepG2), and normal WI-38 cells, following the previously reported method. Experimental details can be found in the Supplementary Materials.
(§5) 1.1. The biological assays
(§6) 1.1.1. The anticancer activity
(§7) The breast adenocarcinoma (MCF-7), Hepatocellular carcinoma (HEPG-2), and normal fibroblast (WI-38) cells were obtained from ATCC via Holding company for biological products and vaccines (VACSERA), Cairo, Egypt. The reagents […] medium, MTT, DMSO, and fetal bovine serum was obtained from Sigma Aldrich. Dulbecco’s modified Eagle’s medium was used as the culture medium for the cells, and the cytotoxicity was evaluated using the reported MTT assay. Doxorubicin was used as the positive reference, and the IC50 values were obtained from the corresponding dose-response curve.
(§8) This colorimetric assay is based on converting the yellow tetrazolium bromide (MTT) to a purple formazan derivative by mitochondrial succinate dehydrogenase in viable cells. Cell lines were cultured in […] medium with 10% fetal bovine serum. Antibiotics added were 100 units/ml penicillin and 100µg/ml streptomycin at 37 C in a 5% Co2 incubator. The cell lines were seeded in a 96-well plate at a density of 1.0x10^4 cells/well. at 37 C for 48 h under 5% Co2. After incubation, the cells were treated with different concentrations of compounds and incubated for 13 […]
(§9) Finally, dimethyl sulfoxide (DMSO) in the volume of 100 µl is added to each well to dissolve the purple formazan formed. The colorimetric assay is measured and recorded at an absorbance of 570 […]
(§10) The percentage of the relative cell viability was calculated as (A570 of treated samples/A570 of the untreated sample) X 100. […]

HepG2 cells = experiment: MTT antiproliferative assay, HepG2 cells; type: cell-based; settings: for IC50: Homo sapiens, HepG2, 24 h, read-out: HepG2 IC50; for HepG2 TI (therapeutic index): ratio of IC50 against WI38 cells to IC50 against HepG2 cells
From the text: Recently, OSe agents have attracted interest due to their potential chemoprotective and antitumor properties. We have developed several OSe compounds with promising antioxidant, antimicrobial, and antitumor properties. Therefore, we estimated the OSe agents’ antiproliferative activities against different cancer cells, i.e., MCF-7 and HepG2 cells and healthy lung fibroblast WI-38 cells, using the MTT assay. The drug doxorubicin was employed as the standard. The corresponding therapeutic indices (TI) are described as the proportion of the WI38 cells IC50 to the IC50 of the cancer cell (e.g., MCF-7 and HepG2) (Table 1).
as §4, §5, §6, §7, §8
Finally, dimethyl sulfoxide (DMSO) in the volume of 100 µl is added to each well to dissolve the purple formazan formed. The colorimetric assay is measured and recorded at an absorbance of 570 nm using a plate reader (EXL 800, USA). The percentage of the relative cell viability was calculated as (A570 of treated samples/A570 of the untreated sample) X 100. […]

WI-38 cells = experiment: MTT cytotoxicity assay, normal lung fibroblast WI-38 cells; type: cell-based; settings: Homo sapiens, WI-38, 24 h, read-out: WI38 IC50
From the text: as §3, §4, §5, §6, §7, §8, §9, §10

[3] = DPPH radical scavenging assay; settings: for antioxidant (scavenging) activity in the DPPH assay: compounds 200 µL, 1 mM in MeOH, DPPH 400 µL, 30 min, absorbance at 517 nm
Experimental: (§11) The antioxidant activities of the OSe compounds were intensively investigated because these are usually the cause of their chemopreventive potency. Their redox activities were evaluated via DPPH and ABTS assays, using ascorbic acid as the standard. We spectrophotometrically measured the antioxidant efficiency of the OSe compounds by their ability to decolorise the DPPH^. and ABTS^. radicals at […] (Figure 2).
(§12) The compounds’ antioxidant properties were assessed by in vitro bioassays using DPPH and ABTS, following the reported method. Details are in the Supplementary Materials.
(§13) Figure 4 Estimation of the OSe compounds’ redox activities via DPPH and ABTS experiments. All tests are mean ± S.D. ABTS experiment: absorbance was followed at 734 nm for OSe compounds (50 µL, 1 mM in MeOH) and ABTS solution (60 µL). DPPH Absorbance was monitored at 517 nm for OSe compounds (200 µL, 1 mM in MeOH) and DPPH (400 µL) after 30 min. […]
1.1.3. The antioxidant activity
1.1.3.1. The DPPH bioassay
The hydrogen atom or electron donation ability of the corresponding compounds was measured by estimating the bleaching of the purple color of a methanolic solution of DPPH [5]. This spectrophotometric assay uses stable DPPH. reagent. The sample was prepared by adding […] of the OSe compounds (1 mM in methanol) to […] DPPH in methanol. After 30 min of incubation in the dark, the absorbance was read against a blank at […]. Ascorbic acid (vitamin C) and ebselen were used as standard antioxidants (positive control). A blank sample was run without DPPH. A negative control sample was run using methanol instead of the sample. The radical scavenging activity was calculated using the following equation:
Inhibition%= (Ablank-Asample)/(Ablank)*100. […]

[4] = ABTS radical scavenging assay; settings: for antioxidant (scavenging) activity in the ABTS assay: compounds 50 µL, 1 mM in MeOH, ABTS solution 60 µL, absorbance at 734 nm
Experimental: as §11, §12, §13
1.1.3.2. The ABTS bioassay
The antioxidant activity of the investigated compounds was assessed using 2,2’-azino-bis(3-ethylbenzothiazoline-6-sulphonic acid (ABTS) method. The radical cation derived from ABTS was prepared by the reaction of 60 mM ABTS solution with 0.3 M manganese dioxide solution in 0.1M phosphate buffer, pH 7. Then, the mixture was shaken, centrifuged, filtered, and the absorbance (Acontrol ) of […]
the resulting green-blue solution (ABTS radical solution) was measured at wavelength 734 nm. Then, […] of 1 mg/ml test compound in phosphate-buffered methanol was added. The absorbance (Atest) was measured. The reduction in color intensity was expressed as % inhibition. The % inhibition for each […]
compound is calculated from the following equation
Inhibition% = (Acontrol-Asample)/(Acontrol)*100
Ascorbic acid (vitamin C) was used as a standard antioxidant (positive control). A blank sample was run […]
without ABTS and using MeOH/phosphate buffer (1:1) instead of the sample. A negative control sample […]
was run with MeOH/phosphate buffer (1:1) instead of a tested compound.

S. aureus [5] = experiment: Agar diffusion assay, S. aureus; type: cell-based, Staphylococcus aureus; design: concentration or dose not given beside the values; settings: ratio of inhibition zone of compound to that of positive control (ampicillin)
From the text: as §1
as §2, with “Materials. […]” for “Materials.”
1.1.2. The antimicrobial activity
The antimicrobial activities of the OSe compounds were evaluate d against C. albicans yeast as well as E. coli gram-negative and S. aureus gram-positive bacteria employing the agar well diffusion assay.
Briefly, a concentration of 1 mM was prepared for each compound by dissolving in DMSO. Paper discs of standard size […] were sterilized in an autoclave and soaked in 9 µL of the test compounds, and placed in the Petri dishes, which in turn contain a nutrient media (agar 9 g, peptone 5 g, and beef extract 3 g) seeded with the dedicated strain. Incubation lasted for 13 h at 36 0C.
Experiments were replicated three times and the antifungal clotrimazole and antibiotic ampicillin […]

S. aureus [6] = experiment: Agar diffusion assay, S. aureus; type: cell-based; settings: Staphylococcus aureus; 6-mm disks soaked with 20 μM of the OSe agents; read-out: S. aureus ZID (inhibition zone diameter)

| MIC (C. albicans [2]) | IC50 ([3]; concentration causing 50% decrease in absorbance, DPPH assay) | IC50 ([4]; concentration causing 50% decrease in absorbance, ABTS assay) | SMILES | zone of inhibition at 20 µM (C. albicans [1]; 6-mm disks soaked with 20 μM of the OSe agents) | C. albicans IA% (activity index) (C. albicans [1]) | IC50 (MCF-7 cells) | MCF7 TI (therapeutic index) (MCF-7 cells) | IC50 (HepG2 cells) | HepG2 TI (therapeutic index) (HepG2 cells) | IC50 (WI-38 cells) | zone of inhibition at 20 µM (C. albicans [1]) | antioxidant (scavenging) activity in the DPPH assay [3] | antioxidant (scavenging) activity in the ABTS assay [4] | S. aureus IA% (activity index) (S. aureus [5]) | zone of inhibition at 20 µM (S. aureus [6]) |
| --- | --- | --- | --- | --- | --- | --- | --- | --- | --- | --- | --- | --- | --- | --- | --- |
| 2 µM (≈ 0.69 µg/mL) |  |  | Clc1ccccc1C(c1ccccc1)(c1ccccc1)n1ccnc1 [Clotrimazole, clotrimazole, reference compound] | 24 mm | 100% |  |  |  |  |  |  |  |  |  |  |
|  |  |  | O=C(C[Se]c1ccc(N2C(=O)c3ccccc3C2=O)cc1)NOCc1ccccc1 [Compound 13, N-(benzyloxy)-2-((4-(1,3-dioxoisoindolin-2-yl)phenyl)selanyl)acetamide] |  | 8.3% | 91.6 ± 4.6 µM | 0.8 | > 100 µM | 0.6 | 61.6 ± 3.8 µM | 2 mm | 89.4% | 87.0% |  |  |
|  |  |  | O=CNc1ccc([Se]CC(=O)NOCc2ccccc2)cc1 [Compound 10, N-(benzyloxy)-2-((4-formamidophenyl)selanyl)acetamide] |  | 29.2% | 49.3 ± 3.1 µM | 0.8 | 83.4 ± 4.2 µM | 0.5 | 37.4 ± 2.6 µM | 7 mm | 64.2% | 64.7% | 28.6% | 6 mm |
|  | 19.18 ± 0.13 µM | 28.16 ± 0.19 µM | O=C1O[C@H]([C@@H](O)CO)C(O)=C1O [Vitamin C, ascorbic acid, reference compound] |  |  |  |  |  |  |  |  | 94.5% | 88.4% |  |  |
